According to patent publication US10253002B2, “Compounds and methods of treating infections” (Neoculi Pty Ltd., priority 2013, dated 2019):
In brackets after ≈: the same amount, converted by molar mass. Like-named read-outs stand apart in the source and are kept apart here.

Tested on: vancomycin-resistant Enterococcus spp. (VRE)
Experiment: Broth microdilution MIC (CLSI), Example 1
Assay type: cell-based
Experimental: Cation adjusted Mueller Hinton Broth (CAMHB) was prepared using 100 mL sterile Mueller Hinton broth (pH adjusted). To each 100 mL volume, 125 μL of calcium stock solution (10 mg Ca^2+ per ml) and 43 μL magnesium stock solution (10 mg Mg^2+ per mL) was aseptically added. Sufficient broth is made up for daily use, with unused portions being stored at 4° C. overnight.
Potency was described as 1000 mg/g or 100%. The powder was dissolved in 10 mL DMSO and 1 mL volumes were aliquoted into eppendorf tubes and stored at −80° C.
Serial dilutions were prepared in 96 well plates were set up in a safety cabinet according to methods standard in the art. Briefly: 90 μL of the working antibiotic solution was added to each well in Column 12 of the plate, and mixed well, before 90 μL was transferred to column 11. The solutions were mixed again, and then transferred to the next column as before, continuing the dilutions through to column 3. Mixing the well requires the pick up and expulsion of 90 μL in each well 3-4 times before picking up and transferring the 90 μL to the next well. […] The trays were set up as follows: 2 strains were tested in duplicate in one tray, such that strain 1 was located in rows A to D, strain 2 was located in rows E to H, etc.
Fresh cultures of bacteria were prepared for testing on sheep blood agar (SBA), and overnight incubation at 37° C. as follows; 2-3 colonies of each strain in 7 mL sterile saline, and the OD600 measured as an indication of the density (approx. […] or 0.5 McFarland Standard). The bacterial suspension was adjusted to a final absorbance of 0.08 to 0.100, using saline to achieve correct density, and as the blank. Within 15 minutes of preparation, the adjusted bacterial suspension with sterile saline 1:20 (1 mL into 19 mL sterile saline) to achieve a final bacterial concentration of 4 to 5×10^6 CFU/mL. The bacterial solution was placed into a sterile trough and 10 μL of bacterial solution added into wells 2 through to 12 on each required row (dilution of 1:10, with final concentration of bacteria in wells=5×10^5 CFU/mL). The tray was sealed and incubated at 37° C. for 18-24 h. The purity of bacterial suspension was confirmed by streaking out 50 μL of the 1:20 dilution onto a SBA plate, which was incubated for 37° C. for 18 h and examined. Viable counts were carried out to ensure that the correct concentration of bacteria and been added to the wells. The diluted bacterial solution (4 to 5×10^6 CFU/mL) was diluted 1:10 downwards by adding 100 μL to 900 μL of sterile saline in sterile tubes, and the serial dilutions continued 1:10 for 5 tubes. 100 μL (4-5 drops) of the 4th and 5th dilutions (tube 4=105 and tube 5=10^6 CFU/ml) was plated around in duplicate on pre-dried PCA agar plates and incubated at 37° C. overnight. The following day the number of colonies on the plates was counted and the average count in 100 μL obtained. The study was multiplied by 10 to obtain a viable bacterial count per mL.
Minimum inhibitory concentrations (μg/mL) were determined using the broth microdilution method recommended by the Clinical and Laboratory Standards Institute (CLSI) (Methods for Dilution Antimicrobial Susceptibility Tests for Bacteria That Grow Aerobically; Approved Standard—Seventh Edition. CLSI M7-A7, 2006; Performance Standards for Antimicrobial Disk and Dilution Susceptibility Tests for Bacteria Isolated from Animals; Approved Standard—Second Edition. CLSI M31-A2, 2002; Performance Standards for Antimicrobial Susceptibility Testing; CLSI M2-A9, 2006).
MIC breakpoints were determined by visual assessment and then confirmed using an ELISA plate reader, measuring absorbance levels at 450 nm. Bacterial growth (turbidity) in the wells with antimicrobial was compared with the amount of growth (turbidity) in the growth-control well (containing no antimicrobial).

[1] = Enterococcus isolates of Table 4, Test 2
[2] = Enterococcus, VRE, B09/2087, Test 1, read-out: MIC
[3] = Enterococcus, VRE, Enterococcus 011, Test 1, read-out: MIC
[4] = Enterococcus, VRE, Enterococcus 012, Test 1, read-out: MIC
[5] = Enterococcus, VRE, Enterococcus 012, Test 2, read-out: MIC
[6] = Enterococcus, VRE, Enterococcus 013, Test 1, read-out: MIC
[7] = Enterococcus, VRE, Enterococcus 013, Test 2, read-out: MIC
[8] = Enterococcus, VRE, VRE 001, Test 1, read-out: MIC
[9] = Enterococcus, VRE, VRE 001, Test 2, read-out: MIC
[10] = Enterococcus, VRE, VRE 003, Test 1, read-out: MIC
[11] = Enterococcus, VRE, VRE 003, Test 2, read-out: MIC
[12] = Enterococcus, VRE, VRE 005, Test 1, read-out: MIC
[13] = Enterococcus, VRE, VRE 005, Test 2, read-out: MIC
[14] = Enterococcus, VRE, VRE 006, Test 1, read-out: MIC
[15] = Enterococcus, VRE, VRE 006, Test 2, read-out: MIC

Q: Which MIC range (E. faecalis, 4 isolates) does the source give for `CC1(C)S[C@@H]2[C@H](NC(=O)[C@H](N)c3ccccc3)C(=O)N2[C@H]1C(=O)O` [Ampicillin] here?
A: 1 mg/L (≈ 2.86 µM)

Q: And the MIC50 (E. faecium, 16 isolates)?
A: 1 mg/L (≈ 2.86 µM)

Q: And the MIC range (E. faecium, 16 isolates)?
A: 1 mg/L (≈ 2.86 µM)

Q: What about the MIC90 (E. faecium, 16 isolates, read-out: MIC90) of the same compound?
A: 2 mg/L (≈ 5.72 µM)

Q: And the MIC (E. faecium, 16 isolates, read-out: MIC mode)?
A: 1 mg/L (≈ 2.86 µM)

Q: What about the MIC (Enterococcus faecalis strain ATCC 29212, read-out: MIC of control strain (internal quality control)) of the same compound?
A: 1 mg/L

Q: And the MIC90 [1]?
A: 2 mg/L (≈ 5.72 µM)

Q: And the MIC (Enterococcus, ATCC 29212 / VRE, Enterococcus spp. ATCC 29212, Test 1, read-out: MIC)?
A: 1 mg/L (≈ 2.86 µM)

Q: What about the MIC (Enterococcus, ATCC 29212 / VRE, Enterococcus spp. ATCC 29212, Test 2, read-out: MIC) of the same compound?
A: 1 mg/L (≈ 2.86 µM)

Q: What about the MIC (Enterococcus, VRE, 20 isolates, read-out: MIC mode) of the same compound?
A: 1 mg/L (≈ 2.86 µM)

Q: What about the MIC (Enterococcus, VRE, B09/2021, Test 1, read-out: MIC) of the same compound?
A: 1 mg/L (≈ 2.86 µM)

Q: What about the MIC (Enterococcus, VRE, B09/2021, Test 2, read-out: MIC) of the same compound?
A: 1 mg/L (≈ 2.86 µM)

Q: And the MIC (Enterococcus, VRE, B09/2032, Test 1, read-out: MIC)?
A: 2 mg/L (≈ 5.72 µM)

Q: What about the MIC (Enterococcus, VRE, B09/2032, Test 2, read-out: MIC) of the same compound?
A: 2 mg/L (≈ 5.72 µM)

Q: And the MIC [2]?
A: 2 mg/L (≈ 5.72 µM)

Q: And the MIC (Enterococcus, VRE, B09/2087, Test 2, read-out: MIC)?
A: 1 mg/L (≈ 2.86 µM)

Q: What about the MIC (Enterococcus, VRE, B09/2088, Test 1, read-out: MIC) of the same compound?
A: 1 mg/L (≈ 2.86 µM)

Q: And the MIC (Enterococcus, VRE, B09/2088, Test 2, read-out: MIC)?
A: 1 mg/L (≈ 2.86 µM)

Q: What about the MIC (Enterococcus, VRE, B09/2121, Test 1, read-out: MIC) of the same compound?
A: 1 mg/L (≈ 2.86 µM)

Q: And the MIC (Enterococcus, VRE, B09/2121, Test 2, read-out: MIC)?
A: 1 mg/L (≈ 2.86 µM)

Q: What about the MIC (Enterococcus, VRE, B09/2192, Test 1, read-out: MIC) of the same compound?
A: 1 mg/L (≈ 2.86 µM)

Q: What about the MIC (Enterococcus, VRE, B09/2192, Test 2, read-out: MIC) of the same compound?
A: 1 mg/L (≈ 2.86 µM)

Q: What about the MIC (Enterococcus, VRE, Enterococcus 008, Test 1, read-out: MIC) of the same compound?
A: 1 mg/L (≈ 2.86 µM)

Q: And the MIC (Enterococcus, VRE, Enterococcus 008, Test 2, read-out: MIC)?
A: 1 mg/L (≈ 2.86 µM)

Q: And the MIC (Enterococcus, VRE, Enterococcus 009, Test 1, read-out: MIC)?
A: 1 mg/L (≈ 2.86 µM)

Q: What about the MIC (Enterococcus, VRE, Enterococcus 009, Test 2, read-out: MIC) of the same compound?
A: 1 mg/L (≈ 2.86 µM)

Q: What about the MIC (Enterococcus, VRE, Enterococcus 010, Test 1, read-out: MIC) of the same compound?
A: 2 mg/L (≈ 5.72 µM)

Q: What about the MIC (Enterococcus, VRE, Enterococcus 010, Test 2, read-out: MIC) of the same compound?
A: 2 mg/L (≈ 5.72 µM)

Q: And the MIC [3]?
A: 1 mg/L (≈ 2.86 µM)

Q: And the MIC (Enterococcus, VRE, Enterococcus 011, Test 2, read-out: MIC)?
A: 1 mg/L (≈ 2.86 µM)

Q: What about the MIC [4] of the same compound?
A: 0.5 mg/L (≈ 1.43 µM)

Q: What about the MIC [5] of the same compound?
A: 0.5 mg/L (≈ 1.43 µM)

Q: What about the MIC [6] of the same compound?
A: 2 mg/L (≈ 5.72 µM)

Q: What about the MIC [7] of the same compound?
A: 2 mg/L (≈ 5.72 µM)

Q: And the MIC (Enterococcus, VRE, Enterococcus 014, Test 1, read-out: MIC)?
A: 1 mg/L (≈ 2.86 µM)

Q: What about the MIC (Enterococcus, VRE, Enterococcus 014, Test 2, read-out: MIC) of the same compound?
A: 1 mg/L (≈ 2.86 µM)

Q: And the MIC [8]?
A: 0.5 mg/L (≈ 1.43 µM)

Q: What about the MIC [9] of the same compound?
A: 0.5 mg/L (≈ 1.43 µM)

Q: And the MIC (Enterococcus, VRE, VRE 002, Test 1, read-out: MIC)?
A: 1 mg/L (≈ 2.86 µM)

Q: What about the MIC (Enterococcus, VRE, VRE 002, Test 2, read-out: MIC) of the same compound?
A: 1 mg/L (≈ 2.86 µM)

Q: What about the MIC [10] of the same compound?
A: 0.5 mg/L (≈ 1.43 µM)

Q: What about the MIC [11] of the same compound?
A: 0.5 mg/L (≈ 1.43 µM)

Q: And the MIC (Enterococcus, VRE, VRE 004, Test 1, read-out: MIC)?
A: 1 mg/L (≈ 2.86 µM)

Q: And the MIC (Enterococcus, VRE, VRE 004, Test 2, read-out: MIC)?
A: 1 mg/L (≈ 2.86 µM)

Q: And the MIC [12]?
A: 1 mg/L (≈ 2.86 µM)

Q: And the MIC [13]?
A: 1 mg/L (≈ 2.86 µM)

Q: And the MIC [14]?
A: 1 mg/L (≈ 2.86 µM)

Q: What about the MIC [15] of the same compound?
A: 1 mg/L (≈ 2.86 µM)

Q: And the MIC (Enterococcus, VRE, VRE 007, Test 1, read-out: MIC)?
A: 1 mg/L (≈ 2.86 µM)

Q: And the MIC (Enterococcus, VRE, VRE 007, Test 2, read-out: MIC)?
A: 1 mg/L (≈ 2.86 µM)

Q: And the MIC50 (Enterococcus, VRE, 20 isolates)?
A: 1 mg/L (≈ 2.86 µM)

Q: And the MIC90 (VRE, 20 isolates)?
A: 2 mg/L (≈ 5.72 µM)

Q: And the MIC90 (VRE, Enterococcus isolates of Table 4, Test 1, read-out: MIC90)?
A: 2 mg/L (≈ 5.72 µM)

Q: Which MIC range (E. faecalis, 4 isolates) does the source give for `N=C(N/N=C/c1ccc(Cl)cc1)N/N=C/c1ccc(Cl)cc1` [NCL812, 1,3-bis[(E)-(4-chlorophenyl)methyleneamino]guanidine] here?
A: 2 to 4 mg/L

Q: What about the MIC range (E. faecium, 16 isolates) of the same compound?
A: 2 to 4 mg/L

Q: And the MIC90 (Enterococcus isolates of Table 4, Test 1)?
A: 4 mg/L (≈ 12 µM)

Q: And the MIC90 [1]?
A: 4 mg/L (≈ 12 µM)

Q: What about the MIC [2] of the same compound?
A: 2 mg/L (≈ 5.98 µM)

Q: What about the MIC [3] of the same compound?
A: 2 mg/L (≈ 5.98 µM)

Q: And the MIC [4]?
A: 2 mg/L (≈ 5.98 µM)

Q: And the MIC [5]?
A: 2 mg/L (≈ 5.98 µM)

Q: What about the MIC [6] of the same compound?
A: 2 mg/L (≈ 5.98 µM)

Q: What about the MIC [7] of the same compound?
A: 2 mg/L (≈ 5.98 µM)

Q: And the MIC [8]?
A: 2 mg/L (≈ 5.98 µM)

Q: And the MIC [9]?
A: 2 mg/L (≈ 5.98 µM)

Q: What about the MIC [10] of the same compound?
A: 2 mg/L (≈ 5.98 µM)

Q: What about the MIC [11] of the same compound?
A: 2 mg/L (≈ 5.98 µM)

Q: And the MIC [12]?
A: 2 mg/L (≈ 5.98 µM)

Q: And the MIC [13]?
A: 2 mg/L (≈ 5.98 µM)

Q: And the MIC [14]?
A: 2 mg/L (≈ 5.98 µM)

Q: What about the MIC [15] of the same compound?
A: 2 mg/L (≈ 5.98 µM)
